Test results published in PubChem BioAssay (NCI).
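96-well plates; 48 h exposure; 5 concentrations. Endpoints by linear interpolation between flanking doses. Not reached: highest tested concentration assigned. The concentration for 50% growth inhibition is given as GI50. Definition used: TGI = concentration required for complete inhibition of growth.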

Legend:
Assay in all cases: NCI-60 cell line screen, 48 h
[1] = system: UO-31 renal
[2] = system: U251 CNS
[3] = system: SN12C renal
[4] = system: SW-620 colon
[5] = system: COLO 205 colon
[6] = system: MOLT-4 leukemia
[7] = system: DU-145 prostate
[8] = system: MALME-3M melanoma
[9] = system: SNB-75 CNS
[10] = system: 786-0 renal
[11] = system: HL-60(TB) leukemia
[12] = system: RPMI-8226 leukemia
[13] = system: HOP-62 NSCLC
[14] = system: SF-539 CNS
[15] = system: SF-268 CNS
[16] = system: RXF 393 renal
[17] = system: SR leukemia
[18] = system: SK-MEL-28 melanoma
[19] = system: OVCAR-5 ovarian
[20] = system: NCI-H522 lung
[21] = system: UACC-62 melanoma
[22] = system: SK-OV-3 ovarian
[23] = system: MDA-MB-435
[24] = system: SNB-19 CNS
[25] = system: A549 NSCLC
[26] = system: HCT-15 colon
[27] = system: CCRF-CEM leukemia
[28] = system: NCI-H460 lung
[29] = system: ACHN renal
[30] = system: MDA-MB-231 breast
[31] = system: M14 melanoma
[32] = system: LOX IMVI melanoma
[33] = system: OVCAR-8 ovarian
[34] = system: HT29 colon
[35] = system: SK-MEL-5 melanoma
[36] = system: PC-3 prostate
[37] = system: BT-549 breast
[38] = system: CAKI-1 renal
[39] = system: HCT-116 colon
[40] = system: MCF7 breast
[41] = system: K-562 leukemia
[42] = system: NCI/ADR-RES ovarian
[43] = system: HS 578T breast
[44] = system: UACC-257 melanoma
[45] = system: OVCAR-4 ovarian

O=C1c2c(c3c4cc(Br)ccc4[nH]c3c3ccc4ccccc4c23)C(=O)N1CCN1CCCCC1
GI50 [1]: 1.5 µM | TGI [1]: 3 µM | GI50 [2]: 0.884 µM | TGI [2]: 2.13 µM | GI50 [3]: 1.44 µM | TGI [3]: 3.16 µM | GI50 [4]: 1.04 µM | TGI [4]: 2.39 µM | GI50 [5]: 1.43 µM | TGI [5]: 3.15 µM | GI50 [6]: 0.314 µM | TGI [6]: 2.53 µM | GI50 [7]: 1.1 µM | TGI [7]: 2.48 µM | GI50 [8]: 1.62 µM | TGI [8]: 3.11 µM | GI50 [9]: 1.52 µM | TGI [9]: 3.44 µM | GI50 [10]: 1.68 µM | TGI [10]: 3.1 µM | GI50 [11]: 1.44 µM | TGI [11]: 6.1 µM | GI50 [12]: 1.63 µM | TGI [12]: 3.94 µM | GI50 [13]: 0.689 µM | TGI [13]: 2.03 µM | GI50 [14]: 1.57 µM | TGI [14]: 3.08 µM | GI50 [15]: 1.44 µM | TGI [15]: 4.08 µM | GI50 [16]: 1.48 µM | TGI [16]: 2.93 µM | GI50 [17]: 0.1 µM | TGI [17]: 1.84 µM | GI50 [18]: 1.77 µM | TGI [18]: 3.29 µM | GI50 [19]: 1.85 µM | TGI [19]: 3.39 µM | GI50 [20]: 1.23 µM | TGI [20]: 2.69 µM | GI50 [21]: 1.97 µM | TGI [21]: 7.3 µM | GI50 [22]: 2.66 µM | TGI [22]: > 100 µM | GI50 [23]: 1.61 µM | TGI [23]: 3.11 µM | GI50 [24]: 1.72 µM | TGI [24]: > 100 µM | GI50 [25]: 1.38 µM | TGI [25]: 2.74 µM | GI50 [26]: 1.54 µM | TGI [26]: 3.52 µM | GI50 [27]: 0.331 µM | TGI [27]: 2.18 µM | GI50 [28]: 0.39 µM | TGI [28]: 1.52 µM | GI50 [29]: 0.783 µM | TGI [29]: 2.03 µM | GI50 [30]: 1.57 µM | TGI [30]: 3.22 µM | GI50 [31]: 1.36 µM | TGI [31]: 2.81 µM | GI50 [32]: 1.18 µM | TGI [32]: 2.66 µM | GI50 [33]: 1.21 µM | TGI [33]: 2.59 µM | GI50 [34]: 1.23 µM | TGI [34]: 2.56 µM | GI50 [35]: 1.77 µM | TGI [35]: 3.27 µM | GI50 [36]: 1.47 µM | TGI [36]: 2.93 µM | GI50 [37]: 9.5 µM | TGI [37]: > 100 µM | GI50 [38]: 1.29 µM | TGI [38]: 2.79 µM | GI50 [39]: 1.2 µM | TGI [39]: 2.52 µM | GI50 [40]: 0.178 µM | TGI [40]: 1.77 µM | GI50 [41]: 0.912 µM | TGI [41]: 3.3 µM | GI50 [42]: 1.28 µM | TGI [42]: 3.34 µM | GI50 [43]: 2.04 µM | TGI [43]: 4.89 µM | GI50 [44]: 1.69 µM | TGI [44]: 3.2 µM | GI50 [45]: 1.8 µM | TGI [45]: 3.68 µM
